From paper PMC5241705 (ACS Infectious Diseases, 2016)
Values after ≈ are worked out from the molar mass of the structure shown. “Also recorded” adds a separate entry of the source.

Columns and labels:
[1] = system: Mtb guaB2-guaB3 Tet-OFF attB::guaB3; assay: microbe, parasite or virus in culture; assay type: cell-based, Mycobacterium tuberculosis; details: for effect of guaB2 silencing on susceptibility: data not shown
[2] = system: Mtb guaB2-guaB3 Tet-OFF attB::guaB3 and guaB2-guaB3 Tet-OFF; assay type: cell-based, Mycobacterium tuberculosis
Mtb H37Rv [3] = assay: Checkerboard assay, purine supplementation versus VCC234718; assay type: cell-based, Mycobacterium tuberculosis; details: for MIC90: Mycobacterium tuberculosis, H37RV
Mtb SRMV2.3 = assay: microbe, parasite or virus in culture; assay type: cell-based; details: Mycobacterium tuberculosis
[4] = human primary hepatocytes
Mtb H37Rv [5] = assay: Time-kill kinetics; assay type: cell-based; details: Mycobacterium tuberculosis, read-out: 99% minimum bactericidal concentration (MBC99)
Mtb GuaB2 = Mtb GuaB2 (Mycobacterium tuberculosis, UniProt P9WKI7); assay: biochemical
[6] = system: Caco-2/TC-7 cell monolayers; details: threshold value 20 × 10^–7 cm s^–1
[7] = system: Mtb SRMV2.6 attB::guaB2-guaB3; assay: MIC by AlamarBlue assay; assay type: cell-based; details: Mycobacterium tuberculosis
Mtb H37Rv attB::guaB2 = assay: MIC by AlamarBlue assay; assay type: cell-based; details: Mycobacterium tuberculosis
[8] = system: nonreplicating, streptomycin-starved Mtb 18b or 18b-Lux; assay: Activity against nonreplicating bacilli; assay type: cell-based, Mycobacterium tuberculosis; details: concentrations up to 20 μM
Mtb SRMV2.6 = assay: microbe, parasite or virus in culture; assay type: cell-based, Mycobacterium tuberculosis
[9] = system: PDIM-deficient H37Rv strain (H37RvJO); assay: MIC by AlamarBlue assay; assay type: cell-based; details: Mycobacterium tuberculosis
Mtb SRMV2.6 attB::guaB2 = assay: MIC by AlamarBlue assay; assay type: cell-based; details: Mycobacterium tuberculosis
replicating H37Rv = assay: microbe, parasite or virus in culture; assay type: cell-based, Mycobacterium tuberculosis
[10] = system: Corynebacterium glutamicum; details: phenotypic screen; cited from earlier work
[11] = system: Mtb-infected activated THP-1 macrophages; assay type: cell-based, human
human ERG channel = human ERG channel (Homo sapiens, UniProt Q12809); assay: cell-based
[12] = human and rodent liver microsomes and human liver primary hepatocytes
[13] = system: Mtb-infected MRC-5 fibroblasts; assay type: cell-based, human; details: concentration up to 50 μM
Mtb H37Rv (H37RvMA) = assay: MIC by broth microdilution, AlamarBlue assay; assay type: cell-based; details: Mycobacterium tuberculosis
[14] = system: Mtb H37Rv attB::guaB2-guaB3; assay: MIC by AlamarBlue assay; assay type: cell-based; details: Mycobacterium tuberculosis
Mtb SRMV2.10 = assay: microbe, parasite or virus in culture; assay type: cell-based; details: Mycobacterium tuberculosis

Sequence of Mtb GuaB2 (P9WKI7 whole entry, looked up): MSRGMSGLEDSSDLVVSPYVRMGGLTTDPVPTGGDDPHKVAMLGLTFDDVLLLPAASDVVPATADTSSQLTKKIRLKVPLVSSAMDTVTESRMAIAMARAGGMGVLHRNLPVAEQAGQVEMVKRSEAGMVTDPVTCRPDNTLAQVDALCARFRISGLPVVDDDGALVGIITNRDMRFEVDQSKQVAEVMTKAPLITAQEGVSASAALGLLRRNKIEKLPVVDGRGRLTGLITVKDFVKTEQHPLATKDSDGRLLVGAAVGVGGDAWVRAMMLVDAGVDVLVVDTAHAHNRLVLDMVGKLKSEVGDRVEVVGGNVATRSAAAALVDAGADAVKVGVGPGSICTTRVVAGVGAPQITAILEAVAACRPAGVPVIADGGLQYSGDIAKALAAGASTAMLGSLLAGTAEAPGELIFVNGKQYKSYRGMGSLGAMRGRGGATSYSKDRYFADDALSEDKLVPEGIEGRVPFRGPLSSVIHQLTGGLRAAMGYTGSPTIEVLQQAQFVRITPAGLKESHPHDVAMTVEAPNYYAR
Sequence of human ERG channel (Q12809 whole entry): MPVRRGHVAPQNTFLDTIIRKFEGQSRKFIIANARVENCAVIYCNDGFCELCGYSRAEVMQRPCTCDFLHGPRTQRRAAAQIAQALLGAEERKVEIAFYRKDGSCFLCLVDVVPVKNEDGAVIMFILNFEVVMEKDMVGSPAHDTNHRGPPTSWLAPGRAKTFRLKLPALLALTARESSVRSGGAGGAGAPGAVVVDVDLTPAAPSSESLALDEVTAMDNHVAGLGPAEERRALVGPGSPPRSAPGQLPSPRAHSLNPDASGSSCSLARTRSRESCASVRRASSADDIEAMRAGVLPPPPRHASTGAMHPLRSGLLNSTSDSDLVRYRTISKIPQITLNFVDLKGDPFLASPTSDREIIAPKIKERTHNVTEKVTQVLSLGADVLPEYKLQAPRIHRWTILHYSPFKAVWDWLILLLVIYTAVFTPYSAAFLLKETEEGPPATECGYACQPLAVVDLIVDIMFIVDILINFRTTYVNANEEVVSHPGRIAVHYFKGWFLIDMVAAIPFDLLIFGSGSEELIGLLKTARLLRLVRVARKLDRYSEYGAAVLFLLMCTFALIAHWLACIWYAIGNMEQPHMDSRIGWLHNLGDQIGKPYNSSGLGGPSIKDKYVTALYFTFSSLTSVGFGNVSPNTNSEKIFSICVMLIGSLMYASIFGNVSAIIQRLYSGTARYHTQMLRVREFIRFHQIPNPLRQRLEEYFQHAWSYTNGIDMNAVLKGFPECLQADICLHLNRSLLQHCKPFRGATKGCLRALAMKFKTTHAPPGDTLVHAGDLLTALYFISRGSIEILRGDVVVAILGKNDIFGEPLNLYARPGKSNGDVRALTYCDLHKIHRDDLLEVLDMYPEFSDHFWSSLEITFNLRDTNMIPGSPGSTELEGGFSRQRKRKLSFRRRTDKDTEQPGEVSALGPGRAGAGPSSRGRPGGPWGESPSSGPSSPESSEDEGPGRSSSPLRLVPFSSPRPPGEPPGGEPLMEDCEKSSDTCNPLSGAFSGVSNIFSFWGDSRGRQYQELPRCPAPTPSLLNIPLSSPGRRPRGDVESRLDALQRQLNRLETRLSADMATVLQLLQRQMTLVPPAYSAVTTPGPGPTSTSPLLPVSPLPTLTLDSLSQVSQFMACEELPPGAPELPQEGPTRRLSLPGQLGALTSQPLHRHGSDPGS

For `CC[C@@H](CO)NCCN[C@@H](CC)CO` [ethambutol], the “effect of guaB2 silencing on susceptibility” value (from here on “effect of guaB2 silencing”) [1] was “no effect”.
With `CO[C@H]1/C=C/O[C@@]2(C)Oc3c(C)c(O)c4c(O)c(c(/C=N/N5CCN(C)CC5)c(O)c4c3C2=O)NC(=O)/C(C)=C\C=C\[C@H](C)[C@H](O)[C@@H](C)[C@@H](O)[C@@H](C)[C@H](OC(C)=O)[C@@H]1C` [rifampicin] the “effect of guaB2 silencing” value [1] was “no effect”.
In the case of `[H]/N=C(/N)N[C@H]1[C@H](O)[C@@H](O)[C@H](O[C@@H]2O[C@@H](C)[C@](O)(C=O)[C@H]2O[C@@H]2O[C@@H](CO)[C@H](O)[C@@H](O)[C@@H]2NC)[C@@H](N/C(N)=N\[H])[C@@H]1O` [streptomycin], the “effect of guaB2 silencing” value [1] is reported as “no effect”.
For `Nc1nc2nc[nH]c2c(=O)[nH]1` [guanine], the “guanine concentration giving essentially complete rescue from ATc toxicity” value [2] was ≥ 125 µM and the “rescue of Mtb from VCC234718 toxicity” value (Mtb H37Rv [3]; VCC234718 at 128 μM) was “unable to rescue”.
In the case of `C[C@H]1COc2c(N3CCN(C)CC3)c(F)cc3c(=O)c(C(=O)O)cn1c23` [levofloxacin], the “effect of guaB2 silencing” value [1] is reported as “no effect”.
With `Nc1nc2c(ncn2[C@@H]2O[C@H](CO)[C@@H](O)[C@H]2O)c(=O)[nH]1` [guanosine] the “effect of supplementation on VCC234718 toxicity” value (“effect of supplementation” below) (Mtb H37Rv [3]) was “neither adenine nor guanosine supplementation was able to rescue; also recorded: failed to rescue”.
For `O=c1[nH]c(=O)c2nc[nH]c2[nH]1` [xanthine], the “effect of supplementation” value (Mtb H37Rv [3]) was “no effect”.
For `O=C(C1CCCCC1)N1CCN(S(=O)(=O)c2cccc3cnccc23)CC1` [VCC234718, N-(5-Isoquinolinylsulfonyl)-N’-cyclohexanoyl-piperazine], the MIC90 (Mtb SRMV2.3) was 16 µM (≈ 6.2 µg/mL), the “contribution of CYP3A4 to metabolism (in words)” value [4] was “no contribution” and the MBC (Mtb H37Rv [5]) was 16 to 32 µM (≈ 6.2 to 12.4 µg/mL). For the same compound, the Ki (Mtb GuaB2; Mtb GuaB2) was 100 nM, the Ki (Mtb GuaB2; Mtb GuaB2, IMP as the substrate) was 120 nM and the mechanism of inhibition (Mtb GuaB2; with respect to IMP and NAD+) was “uncompetitive”. The “permeability (in words)” value [6] was “very high”, the MIC90 [7] was > 200 µM and the MIC90 (Mtb H37Rv attB::guaB2) was 4 to 8 µM (≈ 1.55 to 3.1 µg/mL). The “inhibition of nonreplicating Mtb” value [8] was “not significantly inhibiting”, the MIC90 (Mtb SRMV2.6; Mycobacterium tuberculosis, SRMV2.6) was > 100 µM and the MIC90 (Mtb SRMV2.6; strain SRMV2.6) was >100 µM. The MIC90 (Mtb H37Rv [3]; checkerboard, without guanine) was 2 µM, the MIC90 (Mtb H37Rv [3]; guanine concentration of 200 μM) was > 64 µM and the MIC90 [9] was 2 µM (≈ 0.775 µg/mL). For the same compound, the MIC90 (Mtb SRMV2.6 attB::guaB2) was > 200 µM, the inhibition at 20 µM (replicating H37Rv; Mycobacterium tuberculosis, H37RV, 168 h, read-out: percentage inhibition of resazurin reduction) was > 80% and the MIC90 (replicating H37Rv; Mycobacterium tuberculosis, H37RV, read-out: 90% minimum inhibitory concentration (MIC90)) was 5 µM (≈ 1.94 µg/mL). For the same compound, the “inhibition of H37Rv growth” value (replicating H37Rv; at 20 μM) was “totally inhibit”, the whole-cell activity [10] was “not against Corynebacterium glutamicum” and the “concentrations displaying anticytolytic activity in activated THP-1 macrophages” value [11] was > 1 µM. The IC50 (human ERG channel) was 13700 nM, the “metabolism (in words)” value [12] was “highly metabolized” and the “anticytolytic activity in MRC-5 fibroblasts” value [13] was “completely inactive”. It also gave an MIC90 (Mtb H37Rv (H37RvMA)) of 2 µM (≈ 0.775 µg/mL), an MIC90 [14] of 4 to 8 µM (≈ 1.55 to 3.1 µg/mL) and an MIC90 ([1]; Mycobacterium tuberculosis, checkerboard, before guaB2 silencing (lowest ATc)) of 2.5 µM. It also gave an MIC90 (Mtb SRMV2.10) of 8 µM (≈ 3.1 µg/mL).
In the case of `Nc1ncnc2[nH]cnc12` [adenine], the “effect of supplementation” value (Mtb H37Rv [3]) is reported as “neither adenine nor guanosine supplementation was able to rescue”.
With `NNC(=O)c1ccncc1` [isoniazid] the “effect of guaB2 silencing” value [1] was “no effect”.
